Patent publication US20140155609A9, “QUINOLINE DERIVATIVE COMPOUND, METHOD FOR PREPARING SAME, AND PHARMACEUTICAL COMPOSITION CONTAINING SAME” (Dong-A ST Co., Ltd., priority 2010, published 2014)

Columns and labels:
[1] = molecular target: T1, human dopamine D2 receptor (Homo sapiens, UniProt P14416); experiment: Assay for affinity for dopamine receptor (3H-spiperone competitive binding); settings: 10 μM compound; 0.16 nM tritium spiperone; CHO cells transfected with human dopamine D2; mean of two experiments
T1 construct: expressed in transfected cells; host or cells: CHO (Chinese hamster ovary) cells
T1 sequence (P14416 whole entry): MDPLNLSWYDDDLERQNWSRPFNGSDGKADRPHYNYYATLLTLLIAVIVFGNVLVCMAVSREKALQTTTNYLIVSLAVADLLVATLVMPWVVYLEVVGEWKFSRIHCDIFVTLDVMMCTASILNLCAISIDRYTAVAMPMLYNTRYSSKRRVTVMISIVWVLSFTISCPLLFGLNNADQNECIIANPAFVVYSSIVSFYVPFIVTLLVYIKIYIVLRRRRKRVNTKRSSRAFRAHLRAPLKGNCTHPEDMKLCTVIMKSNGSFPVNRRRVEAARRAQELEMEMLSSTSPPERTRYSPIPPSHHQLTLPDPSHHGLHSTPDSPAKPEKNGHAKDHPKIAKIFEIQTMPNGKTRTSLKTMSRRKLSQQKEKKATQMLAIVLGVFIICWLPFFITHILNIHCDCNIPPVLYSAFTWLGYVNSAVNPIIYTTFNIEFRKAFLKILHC
Protocol: Affinity of the compounds of the present invention for the dopamine-D2 receptor, which is found in the wall of the gastric tract of mammals and inhibits gastric motility, was determined by measuring competitive inhibition against the binding to the receptor of a radio-labeled ligand which is known for its affinity for the receptor. In this regard, the experiment was performed according to the method described in [Heys G et al. Mol. Endocrinol. 6:920, 1992] and [Grandy D K et al. Proc Natl Acad Sci USA. 86:9762, 1989].
In tris-HCl buffer ([…], pH 7.4, 120 mM NaCl, 5 mM KCl, 2 mM CaCl2, 1 mM MgCl2) 150 μg of Chinese hamster ovary (CHO) cells transfected with a human dopamine D2, gene were incubated at 25° C. for 120 min with 0.16 nM of tritium Spiperone (^3[H] Spiperon [NEN, 250 μCi]) and 10 μM of the compound of interest. After completion of the incubation, the incubation mixture was filtered through Whatman GF/B filter (unifilter-96 Lot: 6005177, PerkinElmer) to separate ligand-bound receptors. […] Then, 10 mL of a scintillation cocktail (Lot: 03999, Fluka) was added and reacted for 16 hrs or longer to measure radiation activity using a beta-counter (Packcard) in order to calculate the quantity of tritium spiperone bound to the receptor. […] The experiment was independently carried out twice, and receptor affinity was calculated using the following Equation 1. […]

human 5-HT1A receptor = molecular target: T2, human 5-HT1A receptor (Homo sapiens, UniProt P08908); experiment: Assay for affinity for serotonin-1A receptor (3H 8-OH-DPAT competitive binding); settings: 10 μM compound; 1.5 nM 3[H] 8-OH-DPAT; CHO cells transfected with human 5-HT1A receptor; mean of two experiments
T2 construct: expressed in transfected cells; host or cells: CHO (Chinese hamster ovary) cells
T2 sequence (P08908 1-422): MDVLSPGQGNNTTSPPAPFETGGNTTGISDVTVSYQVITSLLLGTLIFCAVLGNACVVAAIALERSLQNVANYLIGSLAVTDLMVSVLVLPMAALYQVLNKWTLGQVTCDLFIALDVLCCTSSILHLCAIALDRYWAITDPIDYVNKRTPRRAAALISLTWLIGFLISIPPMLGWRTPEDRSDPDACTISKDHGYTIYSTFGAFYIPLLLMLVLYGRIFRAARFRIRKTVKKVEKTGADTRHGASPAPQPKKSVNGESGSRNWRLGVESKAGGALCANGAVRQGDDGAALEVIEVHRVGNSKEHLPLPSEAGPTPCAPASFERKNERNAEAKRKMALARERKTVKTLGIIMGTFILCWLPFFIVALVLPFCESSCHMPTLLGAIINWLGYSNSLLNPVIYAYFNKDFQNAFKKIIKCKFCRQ
Protocol: Compounds of the present invention were examined for affinity for the serotonin-1A receptor which can increase gastric accommodation in response to an agonist.
In tris-HCl buffer (50 mM Tris-HCl, pH 7.4, 120 mM NaCl, 5 mM KCl, 2 mM CaCl2, 1 mM MgCl2), 150 μg of Chinese hamster ovary (CHO) cells transfected with a human […] 5-HT1A receptor were incubated at 37° C. for 1.5 hrs with 1.5 nM of ^3[H] 8-OH-DPAT and 10 μM of the compound of interest of Example. After completion of the incubation, the incubation mixture was filtered through Whatman GF/B filter (unifilter-96, Lot: 6005177, PerkinElmer) to separate ligand-bound receptors. These bound receptors were washed three times with 5 mL of a Tris-HCl buffer. Then, 10 mL of a scintillation cocktail (Lot: 03999, Fluka) was added, and reacted for 16 hrs or longer with to measure radiation activity using a beta-counter (Packcard) in order to calculate the quantity of ^3[H] 8-OH-DPAT bound to the receptor.
Meanwhile, 10 μM of metergoline was also incubated in the presence of 1.5 nM of ^3[H] 8-OH-DPAT to determine a nonspecific binding value. The experiment was independently carried out twice, and receptor affinity was calculated using the following Equation 2. […]

serotonin-1B receptor = molecular target: T3, serotonin-1B receptor (Rattus norvegicus, UniProt P28564); experiment: Assay for affinity for serotonin-1B receptor (125I cyanopindolol binding, rat cerebral cortex membranes); settings: 10 μM compound, mean of two experiments
T3 construct: cell membranes of the cerebral cortex excised from male Winstar rats; from tissue; host or cells: rat cerebral cortex membranes (male Wistar rats)
T3 sequence (P28564 whole entry): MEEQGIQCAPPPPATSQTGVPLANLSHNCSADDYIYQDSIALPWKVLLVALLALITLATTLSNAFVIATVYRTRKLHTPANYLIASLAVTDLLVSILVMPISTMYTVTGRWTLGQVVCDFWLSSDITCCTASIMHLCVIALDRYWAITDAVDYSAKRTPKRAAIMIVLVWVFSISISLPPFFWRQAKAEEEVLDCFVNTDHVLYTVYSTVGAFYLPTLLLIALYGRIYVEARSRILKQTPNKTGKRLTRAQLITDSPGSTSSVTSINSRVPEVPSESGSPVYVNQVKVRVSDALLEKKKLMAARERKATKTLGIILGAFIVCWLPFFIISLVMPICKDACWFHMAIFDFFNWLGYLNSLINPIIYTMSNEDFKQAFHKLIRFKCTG
Protocol: Compounds of the present invention were examined for affinity for the serotonin-1B receptor which can exert a relaxation effect on the stomach and relieve impaired gastric accommodation of functional dyspepsia patients in response to an agonist.
In a Tris-HCl buffer (50 mM Tris-HCl, pH 7.4, 120 mM NaCl, 5 mM KCl, 2 mM CaCl2, 1 mM MgCl2), 4 mg of cell membranes of the cerebral cortex excised from male Winstar rats, each weighing 175±25 g, was incubated at 37° C. for 1.5 hrs with […] of ^125[I] cyanopindolol (PerkinElmer, 100 μCi) and 10 μM of the compound of interest of the present invention per well. After completion of the incubation, the incubation mixture was filtered through Whatman GF/B filter (unifilter-96, Lot: 6005177, PerkinElmer) to separate ligand-bound receptors. These bound receptors were washed three times with 5 mL of a Tris-HCl buffer. Then, 10 mL of a scintillation cocktail (Lot: 03999, Fluka) was added, and reacted for 16 hrs or to measure a radiation activity using a beta-counter (Packcard) in order to calculate the quantity of ^125[I] cyanopindolol bound to the receptor.
Meanwhile, 10 μM of serotonin (H9523, Sigma) was incubated in the presence of […] of ^125[I] cyanopindolol to determine a nonspecific binding value. The experiment was independently carried out twice, and receptor affinity was calculated using the following Equation 3. […]

normal rat = experiment: Gastric emptying effect on normal rat; assay type: in vivo, Sprague-Dawley rats
Protocol: Gastric emptying activity of the compounds of the present invention was examined in the following experiment.
Sprague-Dawley rats with an age of 6 weeks were divided into groups according to weight, and acclimated for one week at a temperature of 22˜24° C. and a humidity of 60-80% while a standard diet and water were provided. Thereafter, they were starved for 24 hrs before an experiment while water was provided. From 3 hrs before the experiment, no more water was provided. A 3% hydroxy propyl methyl cellulose solution containing the compound of Example in an amount of 10 μg/kg was orally administered at a dose of 1 mL to each rat.
After 45 min, a semi-solid test meal (0.05% phenol red solution containing 1.5% MC), prepared by mashing feeds in water, was orally administered in an amount of 2 mL to each rat. After 35 min, the SD rats were killed, and the stomach was excised, and weighed carefully lest the gut content was leaked. Subsequently, the stomach was washed with distilled water to remove the gut content, dried, and weighed again, in order to calculate the weight of the semi-solid test meal left in the gut. In Table 4, the control was orally administered with 1 mL of 3% […].
Gastric Emptying(%)=[1−(weight of semi-solid test meal left in gut/weight of semi-solid test meal at 0-time)]×100 [Equation 4] […]

CCOC(=O)CCC(=O)N1CCc2cc(OC)c(OC)c3c2[C@@H]1Cc1cc(OC)c(OC)cc1-3 [Example 1, (S)-4-oxo-4-(1,2,9,10-tetramethoxy-4,5,6a,7-tetrahydro-dibenzo[de,g]quinoline-6-yl)-butyric acid ethyl ester]
Affinity (%) [1]: 46%
Affinity (%) (human 5-HT1A receptor): 41%
Affinity (%) (serotonin-1B receptor): 92%
Gastric Emptying (%) (normal rat; dose 10 μg/kg oral, 45 min before semi-solid test meal, stomach excised 35 min after meal, control 24.3): 47.8%
increase of gastric emptying compared to the control (normal rat; normal rats, oral dose 10 μg/kg): roughly two-fold
